Nine molecules from patent US20210292320A1, “FUNCTIONALIZED HETEROCYCLIC COMPOUNDS AS ANTIVIRAL AGENTS” (Enanta Pharmaceuticals, Inc., priority 2020, published 2021) can be followed below.

Bounds are passed on as bounds.

In series [1] the test system is HBV viral product accumulation in 2.2.15 cells. Briefly: HBV antiviral activity in 2.2.15 cells (qPCR of cell lysates or HBsAg/HBeAg ELISA of supernatants, day 5). Type of series: cell-based. As to conditions: Hepatitis B virus, 120 h, 5 days treatment, 0.5% DMSO, 50% reduction of viral product accumulation relative to no drug controls, irrespective of readout. The procedure: 2.2.15 cells are passaged upon attaining confluency in DMEM/F12 media in the presence of 10% FBS, Penn/Strep, and 250 ug/mL G418. Novel compounds are 5 fold serially diluted in DMSO and added to 96 well plates containing 35,000 cells/well at a 1:200 dilution so that the final concentration of DMSO is 0.5%. On day 5, post treatment cell lysates and supernatants are harvested for analysis.
Cells are lysed using Agilent Sidestep Lysis buffer, diluted 1:100 and quantified via quantitative real time PCR. Commercially available ELISA kits are used to quantitate the viral proteins HBsAg (Alpco) or HBeAg (US Biological) by following the manufacturer's recommended protocol after diluting samples to match the linear range of their respective assays. Irrespective of readout, compound concentrations that reduce viral product accumulation in the cell lysates or supernatants by 50% relative to no drug controls (EC50) are reported; EC50 ranges are as follows: A<0.1 μM; B 0.2-1 μM; C>1 μM.

Series [2] is described as follows: Compound induced cellular toxicity in HepG2 cells (ATPlite 1Step, total ATP levels, day 3). Type of series: cell-based. Conditions: human, three days, 0.5% DMSO, 50% reduction of total ATP levels relative to no drug controls. The procedure: At day 3, post seeding cells are treated with ATPlite 1Step according to the manufacturer's instructions.
(In ATP-based viability assays light output follows the ATP content of the culture.)

In general, EC50 refers to the concentration at which the effect is half-maximal. Regarding `CC(C)(C)[C@@H]1Cn2nc(-c3cccc(F)c3)c(-c3cccc(F)c3)c2-c2cc(O)c(C(=O)O)cc21` [Example 5, (S)-6-(tert-butyl)-1,2-bis(3-fluorophenyl)-9-hydroxy-5,6-dihydropyrazolo[5,1-a]isoquinoline-8-carboxylic acid], the 50% effective concentration (EC50) in series [1] is above 1 µM.

As a reminder, the CC50 is the concentration that lowers cell viability or growth by half. Low readings indicate greater toxicity to the cells, high ones lower toxicity to the cells. Regarding `CC(C)(C)[C@@H]1Cn2nc(-c3ccccc3)c(-c3ccccc3)c2-c2cc(O)c(C(=O)O)cc21` [Example 8, (S)-6-(tert-butyl)-9-hydroxy-1,2-diphenyl-5,6-dihydropyrazolo[5,1-a]isoquinoline-8-carboxylic acid], the EC50 in series [1] was below 0.1 µM. In series [2], this molecule registered a CC50 at 3 days above 25 µM.

On to `CC(C)(C)[C@@H]1Cn2nc(-c3ccoc3)c(-c3ccoc3)c2-c2cc(O)c(C(=O)O)cc21` [Example 9, (S)-6-(tert-butyl)-1,2-di(furan-3-yl)-9-hydroxy-5,6-dihydropyrazolo[5,1-a]isoquinoline-8-carboxylic acid], for which the EC50 in series [1] was above 1 µM.

As for `CC(C)(C)[C@@H]1Cn2nc(-c3ccccc3F)c(-c3ccccc3F)c2-c2cc(O)c(C(=O)O)cc21` [Example 7, (S)-6-(tert-butyl)-1,2-bis(2-fluorophenyl)-9-hydroxy-5,6-dihydropyrazolo[5,1-a]isoquinoline-8-carboxylic acid], the EC50 in series [1] was below 0.1 µM. This molecule came in with a half-maximal cytotoxic concentration (CC50) at 3 days in series [2] above 25 µM.

Turning to `CC(C)(C)[C@@H]1Cn2nc(-c3ccc(F)cc3)cc2-c2cc(O)c(C(=O)O)cc21` [Example 1, (S)-6-(tert-butyl)-2-(4-fluorophenyl)-9-hydroxy-5,6-dihydropyrazolo[5,1-a]isoquinoline-8-carboxylic acid], the EC50 in series [1] was above 1 µM.

Molecule `CC(C)(C)[C@@H]1Cn2nc(-c3ccccc3)cc2-c2cc(O)c(C(=O)O)cc21` [Example 2, (S)-6-(tert-butyl)-9-hydroxy-2-phenyl-5,6-dihydropyrazolo[5,1-a]isoquinoline-8-carboxylic acid] displayed an EC50 in series [1] above 1 µM.

The molecule `CC(C)(C)[C@@H]1Cn2nc(-c3ccccc3F)cc2-c2cc(O)c(C(=O)O)cc21` [Example 3, (S)-6-(tert-butyl)-2-(2-fluorophenyl)-9-hydroxy-5,6-dihydropyrazolo[5,1-a]isoquinoline-8-carboxylic acid] came in with an EC50 in series [1] above 1 µM.

In series [1], `CC(C)(C)[C@@H]1Cn2nc(-c3ccc(F)cc3)c(-c3ccc(F)cc3)c2-c2cc(O)c(C(=O)O)cc21` [Example 6, (S)-6-(tert-butyl)-1,2-bis(4-fluorophenyl)-9-hydroxy-5,6-dihydropyrazolo[5,1-a]isoquinoline-8-carboxylic acid] had an EC50 below 0.1 µM. The molecule further returned a CC50 at 3 days in series [2] above 25 µM.

`CC(C)(C)[C@@H]1Cn2nc(-c3cccc(F)c3)cc2-c2cc(O)c(C(=O)O)cc21` [Example 4, (S)-6-(tert-butyl)-2-(3-fluorophenyl)-9-hydroxy-5,6-dihydropyrazolo[5,1-a]isoquinoline-8-carboxylic acid] returned a concentration giving a half-maximal response (EC50) in series [1] above 1 µM.
